Test results taken from patent US8212007B2, “Expression and purification of HIP/PAP and uses therefor” (priority 2007, dated 2012).

How the values were obtained:
[1] = tested on: intestinal bacteria recovered from conventional mouse small intestine; test: Flow cytometry binding to intestinal bacteria; conditions: 30 μM conjugate, 40 minutes on ice, formaldehyde-fixed bacteria
[2] = tested on: Listeria monocytogenes; test: Bactericidal activity after N-terminal cleavage with trypsin; type: cell-based; conditions: 5 μM protein, 2 hours at 37° C., L. monocytogenes
Protocol: Eleven amino acids were truncated from the N-terminus HIP/PAP resulting in increase bactericidal activity.
Purified recombinant HIP/PAP was cleaved by the addition of bovine trypsin (Sigma) in a 1:200 molar ratio (trypsin:HIP/PAP). After 2 hours incubation at 37° C., 5 μM trypsin-treated HIP/PAP or uncleaved recombinant HIP/PAP was added to Listeria monocytogenes that had been grown to mid-log phase in brain-heart infusion (BHI) broth and resuspended in 25 mM MES pH 6, 25 mM NaCl. Initial bacterial concentrations ranged from 10^5 to 10^6 CFU/ml. After incubation for 2 hours at 37° C., viable bacteria were quantitated by dilution plating on BHI agar plates.

| Substance | binding of AlexaFluor555 conjugate to intestinal bacteria (flow cytometry) [1] | bactericidal activity with or without N-terminal truncation (11 amino acids) [2] |
| --- | --- | --- |
| BSA-AlexaFluor555: AlexaFluor555-labeled BSA, control for flow cytometry binding to intestinal bacteria | no binding |  |
| trypsin-treated HIP/PAP: recombinant HIP/PAP cleaved with bovine trypsin, 11 amino acids removed from the N-terminus |  | increased bactericidal activity |
